These are literature values, as cited in PubChem BioAssay AID1259409 (Chemical Carcinogenesis Research Information System (CCRIS), 2018).

The test system of this series is rodent chemically induced tumor inhibition, incidence and multiplicity. In words: CCRIS tumor inhibitor studies. The following applies: Species: MOUSE; for outcome: Carcinogen: N-BUTYL-N-(4-HYDROXYBUTYL)NITROSAMINE [3817-11-6], Route [Inhibitor]: INTRAGASTRIC, Strain/Sex: C57BL/6/FEMALE, Promoter: NONE; for tumour outcome (control, treated, inhibition, significance): Carcinogen: 7,12-DIMETHYLBENZ[A]ANTHRACENE, 57-97-6, Dose [Inhibitor]: 0, Route [Inhibitor]: DERMAL, Target Tissue: Type of Lesion: SKIN: TUMOR.

Take `CN1CCN(c2c(F)cc3c(=O)c(C(=O)O)cn(CCF)c3c2F)CC1`: the outcome reads like this: (Dose [Inhibitor]: 10 MG ONCE/D FOR 1 WK BEGINNING 1 WK PRIOR TO FIRST CARCINOGEN DOSE (STUDY DURATION: 13 WK), Target Tissue: Type of Lesion: URINARY BLADDER: CARCINOMA IN SITU, Dose [Carcinogen]: 0.05% IN DRINKING WATER FOR 8 WK BEGINNING IMMEDIATELY POST LAST INHIBITOR DOSE (STUDY DURATION: 13 WK)) 1, 0, not significant; (Dose [Inhibitor]: 10 MG ONCE/D FOR 1 WK BEGINNING 1 WK PRIOR TO FIRST CARCINOGEN DOSE (STUDY DURATION: 13 WK), Target Tissue: Type of Lesion: URINARY BLADDER: INVASIVE CARCINOMA, Dose [Carcinogen]: 0.05% IN DRINKING WATER FOR 8 WK BEGINNING IMMEDIATELY POST LAST INHIBITOR DOSE (STUDY DURATION: 13 WK)) 0, 0, not significant; (Dose [Inhibitor]: 10 MG ONCE/D FOR 1 WK BEGINNING 1 WK PRIOR TO FIRST CARCINOGEN DOSE (STUDY DURATION: 17 WK), Target Tissue: Type of Lesion: URINARY BLADDER: CARCINOMA IN SITU, Dose [Carcinogen]: 0.05% IN DRINKING WATER FOR 8 WK BEGINNING IMMEDIATELY POST LAST INHIBITOR DOSE (STUDY DURATION: 17 WK)) 1, 0, not significant; (Dose [Inhibitor]: 10 MG ONCE/D FOR 1 WK BEGINNING 1 WK PRIOR TO FIRST CARCINOGEN DOSE (STUDY DURATION: 17 WK), Target Tissue: Type of Lesion: URINARY BLADDER: INVASIVE CARCINOMA, Dose [Carcinogen]: 0.05% IN DRINKING WATER FOR 8 WK BEGINNING IMMEDIATELY POST LAST INHIBITOR DOSE (STUDY DURATION: 17 WK)) 1, 0, not significant; (Dose [Inhibitor]: 10 MG ONCE/D FOR 1 WK BEGINNING 1 WK PRIOR TO FIRST CARCINOGEN DOSE (STUDY DURATION: 21 WK), Target Tissue: Type of Lesion: URINARY BLADDER: CARCINOMA IN SITU, Dose [Carcinogen]: 0.05% IN DRINKING WATER FOR 12 WK BEGINNING IMMEDIATELY POST LAST INHIBITOR DOSE (STUDY DURATION: 21 WK)) 0, 1, not significant; (Dose [Inhibitor]: 10 MG ONCE/D FOR 1 WK BEGINNING 1 WK PRIOR TO FIRST CARCINOGEN DOSE (STUDY DURATION: 21 WK), Target Tissue: Type of Lesion: URINARY BLADDER: INVASIVE CARCINOMA, Dose [Carcinogen]: 0.05% IN DRINKING WATER FOR 12 WK BEGINNING IMMEDIATELY POST LAST INHIBITOR DOSE (STUDY DURATION: 21 WK)) 9, 6, not significant. For the same molecule, the outcome (Dose [Inhibitor]: 50 MG ONCE/D FOR 1 WK BEGINNING 1 WK PRIOR TO FIRST CARCINOGEN DOSE (STUDY DURATION: 13 WK), Target Tissue: Type of Lesion: URINARY BLADDER: CARCINOMA IN SITU, Dose [Carcinogen]: 0.05% IN DRINKING WATER FOR 8 WK BEGINNING IMMEDIATELY POST LAST INHIBITOR DOSE (STUDY DURATION: 13 WK)) is 1, 0, not significant; the outcome (Dose [Inhibitor]: 50 MG ONCE/D FOR 1 WK BEGINNING 1 WK PRIOR TO FIRST CARCINOGEN DOSE (STUDY DURATION: 13 WK), Target Tissue: Type of Lesion: URINARY BLADDER: INVASIVE CARCINOMA, Dose [Carcinogen]: 0.05% IN DRINKING WATER FOR 8 WK BEGINNING IMMEDIATELY POST LAST INHIBITOR DOSE (STUDY DURATION: 13 WK)) was 0, 0, not significant; the outcome (Dose [Inhibitor]: 50 MG ONCE/D FOR 1 WK BEGINNING 1 WK PRIOR TO FIRST CARCINOGEN DOSE (STUDY DURATION: 17 WK), Target Tissue: Type of Lesion: URINARY BLADDER: CARCINOMA IN SITU, Dose [Carcinogen]: 0.05% IN DRINKING WATER FOR 8 WK BEGINNING IMMEDIATELY POST LAST INHIBITOR DOSE (STUDY DURATION: 17 WK)) was 1, 0, not significant; the outcome (Dose [Inhibitor]: 50 MG ONCE/D FOR 1 WK BEGINNING 1 WK PRIOR TO FIRST CARCINOGEN DOSE (STUDY DURATION: 17 WK), Target Tissue: Type of Lesion: URINARY BLADDER: INVASIVE CARCINOMA, Dose [Carcinogen]: 0.05% IN DRINKING WATER FOR 8 WK BEGINNING IMMEDIATELY POST LAST INHIBITOR DOSE (STUDY DURATION: 17 WK)) is 1, 0, not significant; the outcome (Dose [Inhibitor]: 50 MG ONCE/D FOR 1 WK BEGINNING 1 WK PRIOR TO FIRST CARCINOGEN DOSE (STUDY DURATION: 21 WK), Target Tissue: Type of Lesion: URINARY BLADDER: CARCINOMA IN SITU, Dose [Carcinogen]: 0.05% IN DRINKING WATER FOR 12 WK BEGINNING IMMEDIATELY POST LAST INHIBITOR DOSE (STUDY DURATION: 21 WK)) is on record as 0, 2, not significant; the outcome (Dose [Inhibitor]: 50 MG ONCE/D FOR 1 WK BEGINNING 1 WK PRIOR TO FIRST CARCINOGEN DOSE (STUDY DURATION: 21 WK), Target Tissue: Type of Lesion: URINARY BLADDER: INVASIVE CARCINOMA, Dose [Carcinogen]: 0.05% IN DRINKING WATER FOR 12 WK BEGINNING IMMEDIATELY POST LAST INHIBITOR DOSE (STUDY DURATION: 21 WK)) is reported as 9, 5, not significant.

On to `Brc1c(Br)c(Br)c2c(c1Br)Oc1c(Br)c(Br)c(Br)c(Br)c1O2`, for which, where the note is “17 NMOL 2/WK APPLIED 1 HR PRIOR TO EACH PROMOTER DOSE FOR 20 WK (STUDY DURATION: 21 WK), Dose [Carcinogen]: 390 NMOL ONCE, Promoter: 12-O-TETRADECANOYLPHORBOL-13-ACETATE, 16561-29-8”, the “tumour outcome (control, treated, inhibition, significance)” value is recorded as 100%, 93%, 7%, not calculated.

As for `CC(C)C1CCC(O)CC1` (centres undefined), the “tumour outcome (control, treated, inhibition, significance)” value (12 NMOL PER REPEATED APPLICATION FOR 20 WK (STUDY DURATION: 20 WK), Strain/Sex: CD-1/FEMALE, Dose [Carcinogen]: 100 UG ONCE, Promoter: OKADAIC ACID, 78111-17-8) is 87%, 50%, 43%, not calculated.
